According to patent US7429564B2, “Oral insulin therapy” (Emisphere Technologies, Inc., priority 2002, dated 2008):
Read-outs that look alike come from different tables or passages of the source. Marks after values point to notes of the source that are not given here.

Assay: Example 5: 4-CNAB plasma pharmacokinetics, single oral doses, healthy male volunteers
Assay type: in vivo, human
Conditions: for AUC / Cmax / Tmax / half-life / MRT / AUC(0-inf) / AUC(0-t) / MRT inf / Vd/F / MRT last: male, human, plasma; for MRT inf: read-out: 4-CNAB MRT(0-inf); for MRT last: read-out: 4-CNAB MRT(0-t)
Experimental: A single center, double-blind, randomized placebo-controlled study undertaken in healthy human subjects in order to assess the safety and tolerability of escalating single oral doses of 4-CNAB capsules and insulin/4-CNAB capsules.
Within each treatment period in each group, eight subjects were planned to receive active treatment and two subjects to receive placebo. In Group 1, there were four escalating single doses of 4-CNAB (400, 800, 1400 and 2000 mg) and each subject received either all four of these escalating doses or three escalating single doses and one dose of placebo. […] In Group 3 there were three escalating oral doses of Insulin/4-CNAB (100 Units/300 mg, 100 Units/450 mg and 150 Units/100 mg) and one SC dose of 150 Units of insulin. Each subject received either all four of these treatments or three of these treatments and one placebo treatment. For all groups, there was a washout period of at least 72 hours between treatment periods.
The concentration of 4-CNAB in plasma was determined using a combination of liquid chromatography and Mass spectrometry assay known as LC-MS/MS. The method involves protein precipitation followed by separation on liquid chromatography using a Hypersil BDS column and a mobile phase consisting of methanol and acetate buffer. The eluting peaks were quantified by MS/MS. The equipment used for the determination of 4-CNAB in plasma comprises of an Agilent 1100 modular HPLC system with a Micromass Quattro Micro MS/MS detector. HPLC and AR grade chemicals and reagents were used throughout the study.
On the basis of plasma concentrations of 4-CNAB and insulin, PK analysis was performed using non-compartmental PK methods as implemented in WinNonlin™ Professional version 3.2. The profiles for insulin and C-peptide corrected insulin were evaluated up to 6 hours as food was given 6 hours following insulin treatment. The following parameters were derived for 4-CNAB: Cmax, tmax, AUC(0-t), AUC(0-inf), AUC% Extrap, Kel, t1/2, CL/F, Vd/F, MRT(0-t), MRT(0-inf) and Frel. The following parameters were derived for insulin and C-peptide corrected insulin: Cmax, tmax, AUC(0-2), AUC(0-6), AUC(0-t) and concentrations (C^b) and corresponding time (t^b) immediately prior to intervention for hypoglycemia.

[1] = oral, 400 mg, Group/Treatment 1/1, 4-CNAB dose 400, alone, unaudited data
[2] = oral, 800 mg, Group/Treatment 1/2, 4-CNAB dose 800, alone, unaudited data
[3] = oral, 1400 mg, Group/Treatment 1/3, 4-CNAB dose 1400, alone, unaudited data
[4] = oral, 2000 mg, Group/Treatment 1/4, 4-CNAB dose 2000, alone, unaudited data
[5] = oral, Group/Treatment 2/2, 4-CNAB dose 200, with insulin, unaudited data
[6] = oral, Group/Treatment 2/3, 4-CNAB dose 600, with insulin, unaudited data
[7] = oral, Group/Treatment 3/1, 4-CNAB dose 300, with insulin, unaudited data
[8] = oral, Group/Treatment 3/2, 4-CNAB dose 450, with insulin, unaudited data
[9] = oral, Group/Treatment 3/3, 4-CNAB dose 100, with insulin, unaudited data
[10] = po, 400 mg, 4-CNAB alone 400 mg oral
[11] = po, 800 mg, 4-CNAB alone 800 mg oral
[12] = po, 1400 mg, 4-CNAB alone 1400 mg oral
[13] = po, 2000 mg, 4-CNAB alone 2000 mg oral
[14] = po, with insulin, 100 Units/300 mg oral
[15] = po, with insulin, 100 Units/450 mg oral
[16] = po, with insulin, 100 Units/600 mg oral
[17] = po, with insulin, 150 Units/100 mg oral
[18] = po, with insulin, 150 Units/200 mg oral
[19] = with insulin, 100 Units/300 mg oral
[20] = with insulin, 100 Units/450 mg oral
[21] = with insulin, 100 Units/600 mg oral
[22] = with insulin, 150 Units/100 mg oral
[23] = with insulin, 150 Units/200 mg oral

## O=C(O)CCCNC(=O)c1ccc(Cl)cc1O [4-CNAB, 4-[(4-chloro, 2-hydroxybenzoyl)amino]butanoic acid]
4-CNAB alone 400 mg oral
  4-CNAB Cl/F: 294 ± 122 mL/min
  4-CNAB Kel: 0.11 ± 0.78 h⁻¹
  MRT last: 1.6 ± 0.23 h
4-CNAB alone 800 mg oral
  4-CNAB Cl/F: 290 ± 88^b mL/min
  4-CNAB Kel: 0.12 ± 0.04 h⁻¹
  MRT last: 1.75 ± 0.22 h
4-CNAB alone 1400 mg oral
  4-CNAB Cl/F: 160 ± 38 mL/min
  4-CNAB Kel: 0.18 ± 0.14 h⁻¹
  MRT last: 1.6 ± 0.2 h
4-CNAB alone 2000 mg oral
  4-CNAB Cl/F: 178 ± 32^a mL/min
  4-CNAB Kel: 0.06 ± 0.03 h⁻¹
  MRT last: 1.73 ± 0.31 h
4-CNAB alone and combined Insulin/4-CNAB treatment
  4-CNAB median time of maximum concentration: around 0.6 hours
[1]
  AUC: 22400 ng·h/mL
  Cmax: 22300 ng/mL
oral, 400 mg, Group/Treatment 1/1, 4-CNAB dose 400, alone, unaudited data, read-out: 4-CNAB tmax (range)
  Tmax: 0.5 h
[2]
  AUC: 42700 ng·h/mL
  Cmax: 32700 ng/mL
oral, 800 mg, Group/Treatment 1/2, 4-CNAB dose 800, alone, unaudited data, read-out: 4-CNAB tmax (range)
  Tmax: 0.5 h
[3]
  AUC: 144000 ng·h/mL
  Cmax: 97500 ng/mL
oral, 1400 mg, Group/Treatment 1/3, 4-CNAB dose 1400, alone, unaudited data, read-out: 4-CNAB tmax (range)
  Tmax: 0.5 h
[4]
  AUC: 213000 ng·h/mL
  Cmax: 122000 ng/mL
oral, 2000 mg, Group/Treatment 1/4, 4-CNAB dose 2000, alone, unaudited data, read-out: 4-CNAB tmax (range)
  Tmax: 0.75 h
oral, 4-CNAB alone, read-out: 4-CNAB mean elimination half-life, range across doses
  half-life: 5.9 to 15.3 h
[5]
  AUC: 10000 ng·h/mL
  Cmax: 9160 ng/mL
oral, Group/Treatment 2/2, 4-CNAB dose 200, with insulin, unaudited data, read-out: 4-CNAB tmax (range)
  Tmax: 0.5 h
[6]
  AUC: 36700 ng·h/mL
  Cmax: 33200 ng/mL
oral, Group/Treatment 2/3, 4-CNAB dose 600, with insulin, unaudited data, read-out: 4-CNAB tmax (range)
  Tmax: 0.5 h
[7]
  AUC: 8740 ng·h/mL
  Cmax: 8660 ng/mL
oral, Group/Treatment 3/1, 4-CNAB dose 300, with insulin, unaudited data, read-out: 4-CNAB tmax (range)
  Tmax: 0.5 h
[8]
  AUC: 25900 ng·h/mL
  Cmax: 20100 ng/mL
oral, Group/Treatment 3/2, 4-CNAB dose 450, with insulin, unaudited data, read-out: 4-CNAB tmax (range)
  Tmax: 0.5 h
[9]
  AUC: 4710 ng·h/mL
  Cmax: 5170 ng/mL
oral, Group/Treatment 3/3, 4-CNAB dose 100, with insulin, unaudited data, read-out: 4-CNAB tmax (range)
  Tmax: 0.25 h
oral, across treatments, read-out: 4-CNAB MRT, range
  MRT: 1.4 to 1.8 h
oral, combination capsules with insulin, across dose groups, read-out: 4-CNAB mean elimination half-life
  half-life: 3.2 to 5.3 h
[10]
  AUC(0-inf): 26700 ± 12200 ng·h/mL
  AUC(0-t): 22200 ± 6760 ng·h/mL
  Cmax: 22300 ± 11500 ng/mL
  MRT inf: 7.3 ± 11.6 h
po, 400 mg, 4-CNAB alone 400 mg oral, read-out: 4-CNAB Vd/F
  Vd/F: 220 ± 130 L
po, 400 mg, 4-CNAB alone 400 mg oral, read-out: 4-CNAB t1/2 (converted)
  half-life: 12 ± 13.4 h
po, 400 mg, 4-CNAB alone 400 mg oral, read-out: 4-CNAB tmax, median (range)
  Tmax: 0.5 h
[11]
  AUC(0-inf): 49400 ± 15100 ng·h/mL
  AUC(0-t): 44300 ± 14500 ng·h/mL
  Cmax: 38000 ± 15800 ng/mL
  MRT inf: 2.6 ± 0.53 h
po, 800 mg, 4-CNAB alone 800 mg oral, read-out: 4-CNAB Vd/F
  Vd/F: 156 ± 82 L
po, 800 mg, 4-CNAB alone 800 mg oral, read-out: 4-CNAB t1/2 (converted)
  half-life: 5.9 ± 1.55 h
po, 800 mg, 4-CNAB alone 800 mg oral, read-out: 4-CNAB tmax, median (range)
  Tmax: 0.5 h
[12]
  AUC(0-inf): 154000 ± 38100 ng·h/mL
  AUC(0-t): 144000 ± 33800 ng·h/mL
  Cmax: 103000 ± 14600 ng/mL
  MRT inf: 3.06 ± 1.71 h
po, 1400 mg, 4-CNAB alone 1400 mg oral, read-out: 4-CNAB Vd/F
  Vd/F: 81 ± 50 L
po, 1400 mg, 4-CNAB alone 1400 mg oral, read-out: 4-CNAB t1/2 (converted)
  half-life: 6.3 ± 4.1 h
po, 1400 mg, 4-CNAB alone 1400 mg oral, read-out: 4-CNAB tmax, median (range)
  Tmax: 0.75 h
[13]
  AUC(0-inf): 192000 ± 37100 ng·h/mL
  AUC(0-t): 204000 ± 103000 ng·h/mL
  Cmax: 135000 ± 86600 ng/mL
  MRT inf: 7.45 ± 2.36 h
po, 2000 mg, 4-CNAB alone 2000 mg oral, read-out: 4-CNAB Vd/F
  Vd/F: 245 ± 131 L
po, 2000 mg, 4-CNAB alone 2000 mg oral, read-out: 4-CNAB t1/2 (converted)
  half-life: 15.3 ± 6.9 h
po, 2000 mg, 4-CNAB alone 2000 mg oral, read-out: 4-CNAB tmax, median (range)
  Tmax: 0.75 h
[14]
  AUC(0-inf): 9240 ± 5940 ng·h/mL
  AUC(0-t): 8740 ± 5520 ng·h/mL
  Cmax: 8900 ± 6350 ng/mL
  MRT inf: 2.43 ± 0.82 h
po, with insulin, 100 Units/300 mg oral, read-out: 4-CNAB MRT(0-f)
  MRT: 1.51 ± 0.16 h
po, with insulin, 100 Units/300 mg oral, read-out: 4-CNAB Vz/F
  Vd/F: 324 ± 239 L
po, with insulin, 100 Units/300 mg oral, read-out: 4-CNAB t1/2 (converted)
  half-life: 5.3 ± 3.3 h
po, with insulin, 100 Units/300 mg oral, read-out: 4-CNAB tmax, median
  Tmax: 0.5 h
[15]
  AUC(0-inf): 26800 ± 4560 ng·h/mL
  AUC(0-t): 26000 ± 4410 ng·h/mL
  Cmax: 23200 ± 7930 ng/mL
  MRT inf: 2.3 ± 0.46 h
po, with insulin, 100 Units/450 mg oral, read-out: 4-CNAB MRT(0-f)
  MRT: 1.79 ± 0.5 h
po, with insulin, 100 Units/450 mg oral, read-out: 4-CNAB Vz/F
  Vd/F: 101 ± 35 L
po, with insulin, 100 Units/450 mg oral, read-out: 4-CNAB t1/2 (converted)
  half-life: 4.1 ± 1.2 h
po, with insulin, 100 Units/450 mg oral, read-out: 4-CNAB tmax, median
  Tmax: 0.5 h
[16]
  AUC(0-inf): 37600 ± 5430 ng·h/mL
  AUC(0-t): 36600 ± 5760 ng·h/mL
  Cmax: 35800 ± 12300 ng/mL
  MRT inf: 1.9 ± 0.58 h
po, with insulin, 100 Units/600 mg oral, read-out: 4-CNAB MRT(0-f)
  MRT: 1.45 ± 0.17 h
po, with insulin, 100 Units/600 mg oral, read-out: 4-CNAB Vz/F
  Vd/F: 96 ± 35 L
po, with insulin, 100 Units/600 mg oral, read-out: 4-CNAB t1/2 (converted)
  half-life: 4.1 ± 1.2 h
po, with insulin, 100 Units/600 mg oral, read-out: 4-CNAB tmax, median
  Tmax: 0.5 h
[17]
  AUC(0-inf): 4920 ± 1100 ng·h/mL
  AUC(0-t): 4680 ± 1080 ng·h/mL
  Cmax: 6200 ± 3600 ng/mL
  MRT inf: 2.39 ± 1.39 h
po, with insulin, 150 Units/100 mg oral, read-out: 4-CNAB MRT(0-f)
  MRT: 1.42 ± 0.56 h
po, with insulin, 150 Units/100 mg oral, read-out: 4-CNAB Vz/F
  Vd/F: 148 ± 102 L
po, with insulin, 150 Units/100 mg oral, read-out: 4-CNAB t1/2 (converted)
  half-life: 4.8 ± 3.4 h
po, with insulin, 150 Units/100 mg oral, read-out: 4-CNAB tmax, median
  Tmax: 0.5 h
[18]
  AUC(0-inf): 10300 ± 2080 ng·h/mL
  AUC(0-t): 10000 ± 1890 ng·h/mL
  Cmax: 10100 ± 5090 ng/mL
  MRT inf: 1.97 ± 0.39 h
po, with insulin, 150 Units/200 mg oral, read-out: 4-CNAB MRT(0-f)
  MRT: 1.59 ± 0.23 h
po, with insulin, 150 Units/200 mg oral, read-out: 4-CNAB Vz/F
  Vd/F: 89 ± 35 L
po, with insulin, 150 Units/200 mg oral, read-out: 4-CNAB t1/2 (converted)
  half-life: 3.2 ± 1.4 h
po, with insulin, 150 Units/200 mg oral, read-out: 4-CNAB tmax, median
  Tmax: 0.5 h
[19]
  4-CNAB Cl/F: 834 ± 527 mL/min
  4-CNAB Kel: 0.19 ± 0.12 h⁻¹
[20]
  4-CNAB Cl/F: 287 ± 49 mL/min
  4-CNAB Kel: 0.185 ± 0.06 h⁻¹
[21]
  4-CNAB Cl/F: 271 ± 38 mL/min
  4-CNAB Kel: 0.19 ± 0.06 h⁻¹
[22]
  4-CNAB Cl/F: 352 ± 68 mL/min
  4-CNAB Kel: 0.22 ± 0.14 h⁻¹
[23]
  4-CNAB Cl/F: 338 ± 75 mL/min
  4-CNAB Kel: 0.25 ± 0.09 h⁻¹
